Results as given in patent US6733986B1, “Method and agent for determining a deaminase enzymatic activity” (Bio Merieux, priority 1997, dated 2004).

Key:
[1] = tested on: strains which belong to the group Proteus; assay: Example of a gelled medium with O-toluene-sulfonyl-L-tyrosine and iron citrate; type: cell-based; details: 0.5 g/l with iron citrate at 0.5 g/l in gelled medium; after 18 to 24 hours of incubation
Description: As an example of a gelled medium, O-toluene-sulfonyl-L-tyrosine at 0.5 g/l and iron citrate at 0.5 g/l can be incorporated into the culture medium, in the following medium:
this medium being able to be inoculated with various Gram-negative or Gram-positive microorganisms.

[2] = tested on: bacteria belonging to the group Proteus; assay: Differentiation of the group Proteus from other bacteria in liquid medium (Example 7); type: cell-based; details: after 48 hours
Method: Two media were prepared according to the usual techniques. […] The composition of the Media III and IV for one liter of final medium is as follows: [table] The pH of the media was adjusted to approximately 7.2. In Medium III, the detection agent for the enzymatic activity such as deaminase activity which was used is the natural amino acid L-histidine, at 1.5 g/l; in Medium IV, the detection agent for the enzymatic activity such as deaminase activity which is used is of [sic] N-toluene-sulfonyl-L-histidine, at 0.5 g/l. The media were distributed into test tubes, in a sterile manner. These two media were inoculated with the 12 bacterial strains described in Example 6. The tubes were incubated for 48 hours at 37° C., and were examined visually after 48 hours according to the following interpretation: the browning of the tube reflects the presence of an enzymatic activity such as deaminase activity, and thus of a bacterium of the group Proteus, the absence of browning signifies the absence of bacteria of the group Proteus.

Cc1ccc(S(=O)(=O)Oc2ccc(C[C@H](N)C(=O)O)cc2)cc1 [Example 2, 4-O-tosyl-L-tyrosine]
colour of colonies of strains of the group Proteus [1]: brown colonies

N[C@@H](Cc1c[nH]cn1)C(=O)O [L-histidine]
differentiation of bacteria of the group Proteus from those not belonging thereto [2]: high sensitivity and specificity
